We go through eleven compounds from patent US20240165244A1 (Prelude Therapeutics Incorporated, priority 2022, published 2024).

Structures are written as SMILES.

By DC50 is commonly meant the concentration giving 50% degradation. A higher DC50 goes with degradation only at high concentration. Usually Dmax stands for the greatest extent of degradation seen. A high value points to deep degradation.

In one assay the target is T1, SMARCA4 (Homo sapiens, UniProt P51532).
T1 construct: SMARCA4-HiBiT knock-in Hela monoclonal cell (CS3023226); host or cells: HeLa monoclonal cells with heterozygous HiBiT knock-in at the endogenous SMARCA4 locus
As to the kind of experiment: SMARCA4 HiBiT degradation assay in HeLa cells. It is filed as cell-based. The following applies: 18 hours, highest concentration 10 μM. In a few lines: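 HeLa monoclonal cells with HiBiT knocked into SMARCA4 were seeded at 2500 cells/well, dosed with compound and incubated 18 hours at 37° C. HiBiT signal reported remaining SMARCA4 protein, and values came from curve fitting.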
A general note: HiBiT is a short tag that completes a luciferase, so light tracks the accessible tagged protein.

The target in the next assay is T2, SMARCA2 (Homo sapiens, UniProt P51531).
T2 construct: SMARCA2-HiBiT knock-in Hela monoclonal cell (CS302366); host or cells: HeLa monoclonal cells with heterozygous HiBiT knock-in at the endogenous SMARCA2 locus
Put plainly: SMARCA2 HiBiT degradation assay in HeLa cells. The assay is classed as cell-based. The conditions noted are these: 18 hours, highest concentration 10 μM. In a few lines: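 Degradation was read as Nano-Glo HiBiT lytic luminescence (30-60 min, RT) and fitted to curves. Compounds in 3-fold dilutions up to 10 μM were applied for 18 h at 37 °C. Cells were 2500/well monoclonal HeLa with a heterozygous C-terminal HiBiT tag on SMARCA2.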

T1 sequence (P51532 whole entry): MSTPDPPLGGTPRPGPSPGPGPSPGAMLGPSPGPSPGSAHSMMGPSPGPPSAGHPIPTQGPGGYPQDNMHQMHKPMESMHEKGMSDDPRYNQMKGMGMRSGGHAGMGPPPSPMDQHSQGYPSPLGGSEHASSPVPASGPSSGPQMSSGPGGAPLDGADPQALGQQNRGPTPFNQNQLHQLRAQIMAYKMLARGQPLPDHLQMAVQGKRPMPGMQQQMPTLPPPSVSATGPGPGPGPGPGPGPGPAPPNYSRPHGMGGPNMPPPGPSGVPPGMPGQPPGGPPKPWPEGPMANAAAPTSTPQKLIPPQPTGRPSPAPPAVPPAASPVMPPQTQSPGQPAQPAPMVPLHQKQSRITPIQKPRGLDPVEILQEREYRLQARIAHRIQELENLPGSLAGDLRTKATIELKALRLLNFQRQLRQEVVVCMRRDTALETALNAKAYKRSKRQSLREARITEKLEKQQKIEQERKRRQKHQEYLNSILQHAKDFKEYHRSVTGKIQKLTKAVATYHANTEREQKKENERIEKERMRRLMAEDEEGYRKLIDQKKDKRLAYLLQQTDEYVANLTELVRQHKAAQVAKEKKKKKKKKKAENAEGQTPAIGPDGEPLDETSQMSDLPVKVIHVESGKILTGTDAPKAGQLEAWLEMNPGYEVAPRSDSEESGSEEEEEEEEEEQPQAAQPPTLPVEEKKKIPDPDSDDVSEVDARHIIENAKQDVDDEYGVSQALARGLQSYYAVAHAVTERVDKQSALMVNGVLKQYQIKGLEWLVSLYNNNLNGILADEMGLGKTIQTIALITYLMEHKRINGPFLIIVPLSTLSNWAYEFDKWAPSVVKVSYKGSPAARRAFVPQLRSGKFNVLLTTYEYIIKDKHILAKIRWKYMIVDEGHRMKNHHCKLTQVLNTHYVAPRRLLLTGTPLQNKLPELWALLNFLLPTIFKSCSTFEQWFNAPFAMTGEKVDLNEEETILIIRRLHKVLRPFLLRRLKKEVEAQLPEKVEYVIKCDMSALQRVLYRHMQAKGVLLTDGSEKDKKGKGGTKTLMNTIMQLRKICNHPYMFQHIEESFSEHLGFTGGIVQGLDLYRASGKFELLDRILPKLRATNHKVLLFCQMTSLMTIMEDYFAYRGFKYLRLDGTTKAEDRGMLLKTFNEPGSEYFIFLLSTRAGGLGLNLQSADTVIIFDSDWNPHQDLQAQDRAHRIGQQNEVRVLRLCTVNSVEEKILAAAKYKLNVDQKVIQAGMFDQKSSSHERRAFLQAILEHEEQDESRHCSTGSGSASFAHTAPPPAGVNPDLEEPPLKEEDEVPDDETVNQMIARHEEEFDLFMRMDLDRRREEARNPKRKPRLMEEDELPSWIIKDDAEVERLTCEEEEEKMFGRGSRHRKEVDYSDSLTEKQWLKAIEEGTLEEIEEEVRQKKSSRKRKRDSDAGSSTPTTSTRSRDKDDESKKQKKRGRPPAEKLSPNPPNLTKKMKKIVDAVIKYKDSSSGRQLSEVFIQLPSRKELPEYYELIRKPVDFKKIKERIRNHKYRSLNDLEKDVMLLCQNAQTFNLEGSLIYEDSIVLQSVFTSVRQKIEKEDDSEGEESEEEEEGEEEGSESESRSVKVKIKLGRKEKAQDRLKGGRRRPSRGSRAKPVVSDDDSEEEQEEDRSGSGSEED
T2 sequence (P51531 whole entry): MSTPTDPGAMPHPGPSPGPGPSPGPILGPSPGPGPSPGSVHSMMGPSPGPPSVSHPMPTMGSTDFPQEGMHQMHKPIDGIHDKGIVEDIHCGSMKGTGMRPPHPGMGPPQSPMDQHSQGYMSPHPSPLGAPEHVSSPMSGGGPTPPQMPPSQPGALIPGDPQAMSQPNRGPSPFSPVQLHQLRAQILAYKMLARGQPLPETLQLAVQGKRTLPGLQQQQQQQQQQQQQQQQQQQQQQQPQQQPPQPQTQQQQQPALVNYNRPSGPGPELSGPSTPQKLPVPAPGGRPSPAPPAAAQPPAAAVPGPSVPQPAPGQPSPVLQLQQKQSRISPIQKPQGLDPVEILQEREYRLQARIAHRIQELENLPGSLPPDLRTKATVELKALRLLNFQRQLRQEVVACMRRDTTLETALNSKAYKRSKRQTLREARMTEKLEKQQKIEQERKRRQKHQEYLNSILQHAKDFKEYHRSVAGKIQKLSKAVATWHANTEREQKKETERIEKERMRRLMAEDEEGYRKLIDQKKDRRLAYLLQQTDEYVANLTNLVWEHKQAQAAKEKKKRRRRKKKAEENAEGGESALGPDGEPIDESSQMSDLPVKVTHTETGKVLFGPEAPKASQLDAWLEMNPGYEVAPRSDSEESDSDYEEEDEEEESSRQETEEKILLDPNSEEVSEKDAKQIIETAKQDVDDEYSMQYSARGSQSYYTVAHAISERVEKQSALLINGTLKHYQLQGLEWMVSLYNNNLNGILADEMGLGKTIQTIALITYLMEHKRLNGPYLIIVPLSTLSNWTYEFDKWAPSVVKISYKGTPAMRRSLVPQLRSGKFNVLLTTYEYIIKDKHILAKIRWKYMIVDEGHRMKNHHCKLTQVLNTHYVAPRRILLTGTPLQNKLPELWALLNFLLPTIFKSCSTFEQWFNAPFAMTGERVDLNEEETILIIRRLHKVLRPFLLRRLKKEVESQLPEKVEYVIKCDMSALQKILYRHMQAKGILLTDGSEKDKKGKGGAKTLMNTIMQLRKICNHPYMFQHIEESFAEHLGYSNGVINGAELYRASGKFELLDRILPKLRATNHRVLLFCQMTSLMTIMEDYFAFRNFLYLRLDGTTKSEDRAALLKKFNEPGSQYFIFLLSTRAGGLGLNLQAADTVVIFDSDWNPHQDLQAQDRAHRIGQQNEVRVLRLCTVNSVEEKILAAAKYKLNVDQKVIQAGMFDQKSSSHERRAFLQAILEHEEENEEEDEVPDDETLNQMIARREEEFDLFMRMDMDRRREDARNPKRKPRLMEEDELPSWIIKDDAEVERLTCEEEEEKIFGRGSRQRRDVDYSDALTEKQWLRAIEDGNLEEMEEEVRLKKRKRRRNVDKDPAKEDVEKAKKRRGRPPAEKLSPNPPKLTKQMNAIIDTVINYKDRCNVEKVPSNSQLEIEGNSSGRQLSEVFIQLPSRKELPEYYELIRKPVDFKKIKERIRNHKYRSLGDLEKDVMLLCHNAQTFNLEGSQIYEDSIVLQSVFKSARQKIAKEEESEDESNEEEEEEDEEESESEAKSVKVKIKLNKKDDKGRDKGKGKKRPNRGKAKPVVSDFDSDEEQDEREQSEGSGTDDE

At SMARCA4, `O=C1CCC(N2Cc3ccc(N4CCN(Cc5ccc(O[C@@H]6C[C@@H]7CNc8nnc(-c9cc(F)cc(F)c9O)cc8N7C6)cc5C(F)(F)F)CC4)cc3C2=O)C(=O)N1` (stereo partly drawn) [Example 15, 3-(6-(4-(4-(((6aR,8R)-2-(3,5-difluoro-2-hydroxyphenyl)-5,6,6a,7,8,9-hexahydropyrrolo[1′,2′:4,5]pyrazino[2,3-c]pyridazin-8-yl)oxy)-2-(trifluoromethyl)benzyl)piperazin-1-yl)-1-oxoisoindolin-2-yl)piperidine-2,6-dione] gave a DC50 of over 1000 nM and a Dmax of 50 to 75%. In addition, at SMARCA2, the 50% degradation concentration (DC50) was under 100 nM and the Dmax was over 75%.

On to `CCc1nc(CN2CCC(c3ccc4c(c3)C(=O)N([C@H]3CCC(=O)NC3=O)C4)CC2)cnc1O[C@H]1CN2c3cc(-c4cccc(F)c4O)nnc3NC[C@@]2(CF)C1` [Example 68, (S)-3-(6-(1-((6-ethyl-5-(((6aR,8R)-2-(3-fluoro-2-hydroxyphenyl)-6a-(fluoromethyl)-5,6,6a,7,8,9-hexahydropyrrolo[1′,2′:4,5]pyrazino[2,3-c]pyridazin-8-yl)oxy)pyrazin-2-yl)methyl)piperidin-4-yl)-1-oxoisoindolin-2-yl)piperidine-2,6-dione], for which, at SMARCA4, the DC50 was over 1000 nM and the maximal degradation (Dmax) is under 50%. At SMARCA2, this compound came in with a half-maximal degradation concentration (DC50) of under 100 nM and a Dmax of over 75%.

For `O=C1CCC(N2Cc3ccc(N4CCN(Cc5ccc(O[C@@H]6C[C@@H]7CNc8nnc(-c9cc(F)cc(F)c9O)cc8N7C6)nc5)CC4)cc3C2=O)C(=O)N1` (stereo partly drawn) [Example 33, 3-(6-(4-((6-(((6aR,8R)-2-(3,5-difluoro-2-hydroxyphenyl)-5,6,6a,7,8,9-hexahydropyrrolo[1′,2′:4,5]pyrazino[2,3-c]pyridazin-8-yl)oxy)pyridin-3-yl)methyl)piperazin-1-yl)-1-oxoisoindolin-2-yl)piperidine-2,6-dione], at SMARCA4, the DC50 is under 100 nM and the greatest degradation seen (Dmax) is over 75%. At SMARCA2, this compound registered a half-maximal degradation concentration (DC50) of under 100 nM and a maximal degradation (Dmax) of over 75%.

For the compound `Cc1nc(O[C@H]2CN3c4cc(-c5cccc(F)c5O)nnc4NC[C@@]3(C)C2)nc(C)c1CN1CCC(c2ccc3c(c2)C(=O)N([C@H]2CCC(=O)NC2=O)C3)CC1` [Example 78, (S)-3-(6-(1-((2-(((6aR,8R)-2-(3-fluoro-2-hydroxyphenyl)-6a-methyl-5,6,6a,7,8,9-hexahydropyrrolo[1′,2′:4,5]pyrazino[2,3-c]pyridazin-8-yl)oxy)-4,6-dimethylpyrimidin-5-yl)methyl)piperidin-4-yl)-1-oxoisoindolin-2-yl)piperidine-2,6-dione], at SMARCA4, the 50% degradation concentration (DC50) was over 1000 nM and the Dmax was under 50%. For the same compound, at SMARCA2, the half-maximal degradation concentration (DC50) was under 100 nM and the greatest degradation seen (Dmax) is over 75%.

As for `CC[C@@]12CNc3nnc(-c4cc(F)cc(F)c4O)cc3N1C[C@H](Oc1ccc(CN3CCN(c4ccc5c(c4)C(=O)N(C4CCC(=O)NC4=O)C5)CC3)cn1)C2` (stereo partly drawn) [Example 63, 3-(6-(4-((6-(((6aR,8R)-2-(3,5-difluoro-2-hydroxyphenyl)-6a-ethyl-5,6,6a,7,8,9-hexahydropyrrolo[1′,2′:4,5]pyrazino[2,3-c]pyridazin-8-yl)oxy)pyridin-3-yl)methyl)piperazin-1-yl)-1-oxoisoindolin-2-yl)piperidine-2,6-dione], on SMARCA4, the DC50 was under 100 nM and the Dmax is over 75%. On SMARCA2, the DC50 is under 100 nM and the greatest degradation seen (Dmax) is over 75%.

As for `Cc1cc(S[C@@H]2C[C@@H]3CNc4nnc(-c5cc(F)cc(F)c5O)cc4N3C2)ncc1CN1CCN(c2ccc3c(c2)C(=O)N([C@H]2CCC(=O)NC2=O)C3)CC1` [Example 38, (S)-3-(6-(4-((6-(((6aR,8R)-2-(3,5-difluoro-2-hydroxyphenyl)-5,6,6a,7,8,9-hexahydropyrrolo[1′,2′:4,5]pyrazino[2,3-c]pyridazin-8-yl)thio)-4-methylpyridin-3-yl)methyl)piperazin-1-yl)-1-oxoisoindolin-2-yl)piperidine-2,6-dione], the DC50 is over 1000 nM at SMARCA4 and under 100 nM on SMARCA2. Besides, the Dmax at SMARCA4 was under 50%; on SMARCA2 it was over 75%.

As for `Cc1cc(O[C@@H]2C[C@@H]3CNc4nnc(-c5cc(F)cc(F)c5O)cc4N3C2)cc(C)c1CN1CCN(c2ccc3c(c2)C(=O)N(C2CCC(=O)NC2=O)C3)CC1` (stereo partly drawn) [Example 17, 3-(6-(4-(4-(((6aR,8R)-2-(3,5-difluoro-2-hydroxyphenyl)-5,6,6a,7,8,9-hexahydropyrrolo[1′,2′:4,5]pyrazino[2,3-c]pyridazin-8-yl)oxy)-2,6-dimethylbenzyl)piperazin-1-yl)-1-oxoisoindolin-2-yl)piperidine-2,6-dione], at SMARCA4, the DC50 was over 1000 nM and the Dmax was under 50%. On SMARCA2, this compound gave a half-maximal degradation concentration (DC50) of under 100 nM and a maximal degradation (Dmax) of over 75%.

On SMARCA4, `Cc1c(O[C@H]2CN3c4cc(-c5cccc(F)c5O)nnc4NC[C@@]3(C(F)F)C2)cnc(CN2CCN(c3ccc4c(c3)C(=O)N([C@H]3CCC(=O)NC3=O)C4)CC2)c1F` [Example 45, (S)-3-(6-(4-((5-(((6aR,8R)-6a-(difluoromethyl)-2-(3-fluoro-2-hydroxyphenyl)-5,6,6a,7,8,9-hexahydropyrrolo[1′,2′:4,5]pyrazino[2,3-c]pyridazin-8-yl)oxy)-3-fluoro-4-methylpyridin-2-yl)methyl)piperazin-t-yl)-1-oxoisoindolin-2-yl)piperidine-2,6-dione] gave a DC50 of over 1000 nM and a maximal degradation (Dmax) of under 50%. On SMARCA2, this compound showed a DC50 of under 100 nM and a Dmax of 50 to 75%.

For the compound `C[C@]12CNc3nnc(-c4cccc(F)c4O)cc3N1C[C@H](Oc1cc(C#N)c(CN3CCN(c4ccc5c(c4)C(=O)N([C@H]4CCC(=O)NC4=O)C5)CC3)cn1)C2` [Example 76, 5-((4-(2-((S)-2,6-dioxopiperidin-3-yl)-3-oxoisoindolin-5-yl)piperazin-1-yl)methyl)-2-(((6aS,8R)-2-(3-fluoro-2-hydroxyphenyl)-6a-methyl-5,6,6a,7,8,9-hexahydropyrrolo[1′,2′:4,5]pyrazino[2,3-c]pyridazin-8-yl)oxy)isonicotinonitrile], at SMARCA4, the 50% degradation concentration (DC50) is under 100 nM and the Dmax is over 75%. Moreover, at SMARCA2, the DC50 was under 100 nM and the Dmax was over 75%.

Take `Cc1cc(CN2CCC(c3ccc4c(c3)C(=O)N([C@H]3CCC(=O)NC3=O)C4)CC2)ncc1O[C@H]1CN2c3cc(-c4cccc(F)c4O)nnc3NC[C@]2(C(F)F)C1` [Example 92, (S)-3-(6-(1-((5-(((6aS,8R)-6a-(difluoromethyl)-2-(3-fluoro-2-hydroxyphenyl)-5,6,6a,7,8,9-hexahydropyrrolo[1′,2′:4,5]pyrazino[2,3-c]pyridazin-8-yl)oxy)-4-methylpyridin-2-yl)methyl)piperidin-4-yl)-1-oxoisoindolin-2-yl)piperidine-2,6-dione]: at SMARCA4, the half-maximal degradation concentration (DC50) is under 100 nM and the Dmax lay within 50 to 75%. Further, at SMARCA2, the DC50 is under 100 nM and the Dmax was over 75%.

At SMARCA4, `O=C1CCC(N2Cc3ccc(N4CCN(Cc5cnc(O[C@H]6CN7c8cc(-c9cccc(F)c9O)nnc8NC[C@]7(C(F)F)C6)nc5)CC4)cc3C2=O)C(=O)N1` (stereo partly drawn) [Example 42, 3-(6-(4-((2-(((6aS,8R)-6a-(difluoromethyl)-2-(3-fluoro-2-hydroxyphenyl)-5,6,6a,7,8,9-hexahydropyrrolo [1%2′:4,5]pyrazino[2,3-c]pyridazin-8-yl)oxy)pyrimidin-5-yl)methyl)piperazin-1-yl)-1-oxoisoindolin-2-yl)piperidine-2,6-dione] gave a 50% degradation concentration (DC50) of over 1000 nM and a Dmax of under 50%. For the same compound, at SMARCA2, the 50% degradation concentration (DC50) was under 100 nM and the greatest degradation seen (Dmax) was over 75%.
